Laboratory results reported in article PMC7413254 (Nature Communications, 2020).
Several values for one entry are separate records, joined by “and”; a condition that tells them apart may be missing. Equal entries are not always repeated. Where two headings read alike, the source gives them in different places. Where no end group is shown, it is not given here.

What was measured:
PfCRT^Ecu1110 = PfCRT^Ecu1110 (Plasmodium falciparum, UniProt Q9N623, A220S/I356L/K76T/N326D); assay: cell-based; details: trans-inhibition, treatment 45 mM
Protocol: (§1) The characterisation of [^3H]VF-6 transport via 23 different field and laboratory-derived isoforms of PfCRT was undertaken with oocytes two days post-cRNA-injection (Figs. 3a–j, 4; Supplementary Fig. 2). The oocytes were injected with 25 nL of ND96 buffer (pH 5.5) supplemented with [^3H]VF-6 and unlabelled VF-6 to achieve estimated intracellular concentrations of 1.4 and 200 μM, respectively. Ten oocytes that had resealed at the injection site were transferred to a 5 mL polystyrene round bottom tube (In Vitro Technologies) and washed with 3.5 mL of ND96 buffer before being transferred to separate wells of a white 96-well plate (PerkinElmer). This treatment served to establish the amount of radioactivity within the oocytes immediately prior to the commencement of the transport assay. Another 10 resealed oocytes were transferred to a 5 mL tube and washed with 3.5 mL of ND96 buffer. […] The assay was terminated by removing the reaction buffer with a pipette and washing the oocytes twice with 3.5 mL of ice-cold ND96 buffer. Each oocyte was transferred to a separate well of a white 96-well plate. The oocytes were lysed by the addition of 20 μL of 10% (w/v) SDS and overnight incubation at room temperature. The lysed oocyte was then combined with 150 μL of MicroScint-40 microscintillant (PerkinElmer), the plate covered with a TopSeal-A (PerkinElmer), and the radioactivity measured with a MicroBeta^2 microplate liquid scintillation analyser (PerkinElmer). VF-6 transport was calculated by subtracting the amount of radioactivity (measured in counts per minute) present within the oocytes at the end of the incubation from that measured in the oocytes sampled immediately before the commencement of the assay. The pH-dependence of transport (Fig. 3c) was determined by injecting the oocytes with [^3H]VF-6 suspended in 25 nL ND96 buffer adjusted to pH 5.0, 5.5, 6.0 or 7.0, which corresponded to the injection of 2.5–250 fmol of H^+. The dependence of [^3H]VF-6 transport on Na^+ or Cl^− was examined by injecting the oocytes with [^3H]VF-6 suspended in the control ND96 buffer (pH 5.5) or a version of this buffer that lacked either Na^+ or Cl^− (Supplementary Fig. 2). […] The dependence of peptide transport on Ca^2+ was determined by injecting the oocytes with [^3H]VF-6 suspended in ND96 buffers that contained different concentrations of Ca^2+ (0–5 mM; Supplementary Fig. 2). […] The dependence of PfCRT-mediated transport on the membrane potential was examined by using (1) Na^+ ionophore III in conjunction with the Na^+ gradients listed in Supplementary Data 7 and (2) Cl^− ionophore III in conjunction with the Cl^− gradients listed in Supplementary Data 7 to clamp the membrane potential of the oocyte from −80 to +80 mV. […] The kinetic parameters for VF-6 transport via different isoforms of PfCRT (Figs. 3e and 4a) were determined in SigmaPlot Windows Version 11.0 by a least-squares fit of the Michaelis–Menten equation to the data.
(§2) A subset of assays measured the ability of solutes known to interact with PfCRT to either cis-inhibit, trans-inhibit or trans-stimulate [^3H]VF-6 transport. These experiments involved adding these solutes to either the cis- or trans-side of the membrane relative to [^3H]VF-6. […] At least five independent experiments were performed (on different days and using oocytes from different frogs), and within each experiment measurements were made from ten oocytes per treatment.

PfCRT^Dd2 = PfCRT^Dd2 (Plasmodium falciparum, UniProt Q9N623, A220S/I356T/K76T/M74I/N326S/N75E/Q271E/R371I); assay: cell-based; details: trans-inhibition, treatment 45 mM
Protocol: as §1, §2

PfCRT^3D7 = PfCRT^3D7 (Plasmodium falciparum, UniProt Q8IBZ9); assay: cell-based
Protocol: as §1, §2

PfCRT = assay: Influx of VF-6 via PfCRT into the oocyte, solutes tested as potential co-substrates; format: cell-based, Plasmodium falciparum; parameters: key: X: Compounds that have been tested as potential co-substrates but are not required for influx of VF-6 via PfCRT into the oocyte; details: X marks the solute

Chain of PfCRT^Dd2 (Q9N623 whole entry A220S/I356T/K76T/M74I/N326S/N75E/Q271E/R371I): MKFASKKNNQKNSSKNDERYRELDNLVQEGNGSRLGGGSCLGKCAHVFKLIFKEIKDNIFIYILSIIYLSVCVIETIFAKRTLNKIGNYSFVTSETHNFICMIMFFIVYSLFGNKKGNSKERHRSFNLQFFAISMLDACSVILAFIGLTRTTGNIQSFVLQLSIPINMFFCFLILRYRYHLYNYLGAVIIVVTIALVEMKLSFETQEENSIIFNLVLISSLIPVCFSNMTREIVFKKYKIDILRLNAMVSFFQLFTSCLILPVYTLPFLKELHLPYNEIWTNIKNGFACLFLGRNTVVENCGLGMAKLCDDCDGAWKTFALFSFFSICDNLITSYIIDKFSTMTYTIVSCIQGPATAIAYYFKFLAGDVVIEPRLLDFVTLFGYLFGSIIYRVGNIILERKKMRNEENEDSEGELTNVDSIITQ
Chain of PfCRT^Ecu1110 (Q9N623 whole entry A220S/I356L/K76T/N326D, canonical isoform): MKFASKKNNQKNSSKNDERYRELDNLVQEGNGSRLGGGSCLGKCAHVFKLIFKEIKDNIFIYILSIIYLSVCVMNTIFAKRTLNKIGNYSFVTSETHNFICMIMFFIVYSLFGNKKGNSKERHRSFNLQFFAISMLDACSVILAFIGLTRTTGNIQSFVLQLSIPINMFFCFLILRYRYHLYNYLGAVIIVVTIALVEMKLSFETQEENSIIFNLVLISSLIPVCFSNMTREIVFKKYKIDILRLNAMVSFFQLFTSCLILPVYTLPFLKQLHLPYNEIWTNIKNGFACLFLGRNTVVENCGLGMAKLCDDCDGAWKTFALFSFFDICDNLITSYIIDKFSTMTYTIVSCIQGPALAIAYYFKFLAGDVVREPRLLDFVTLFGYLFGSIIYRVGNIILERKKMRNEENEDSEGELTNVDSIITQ
Chain of PfCRT^3D7 (Q8IBZ9 59-398): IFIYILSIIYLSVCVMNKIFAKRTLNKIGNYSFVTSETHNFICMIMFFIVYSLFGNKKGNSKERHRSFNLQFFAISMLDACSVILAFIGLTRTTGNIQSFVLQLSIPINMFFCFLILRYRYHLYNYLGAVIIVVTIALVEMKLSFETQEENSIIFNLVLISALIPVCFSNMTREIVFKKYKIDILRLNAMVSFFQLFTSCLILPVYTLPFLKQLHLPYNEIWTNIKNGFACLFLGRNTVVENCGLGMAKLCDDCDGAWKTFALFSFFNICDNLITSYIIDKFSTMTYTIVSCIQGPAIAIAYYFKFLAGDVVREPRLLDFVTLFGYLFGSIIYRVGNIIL

**Q.** How did the “[3H]VF-6 transport, PfCRTEcu1110 (% PfCRT3D7 control)” value (PfCRT^Ecu1110; Experiment 1) turn out when PVNF [VF-6-derived peptide] was run?
**A.** Its value is 10.55 % PfCRT3D7 control.

**Q.** What about the “[3H]VF-6 transport, PfCRTEcu1110 (% PfCRT3D7 control)” value (PfCRT^Ecu1110; Experiment 2) of the same molecule?
**A.** The value was 12.46 % PfCRT3D7 control.

**Q.** And the “[3H]VF-6 transport, PfCRTEcu1110 (% PfCRT3D7 control)” value (PfCRT^Ecu1110; Experiment 3)?
**A.** The value was 11.35 % PfCRT3D7 control.

**Q.** And the “[3H]VF-6 transport, PfCRTEcu1110 (% PfCRT3D7 control)” value (PfCRT^Ecu1110; Experiment 4)?
**A.** The value was 10.58 % PfCRT3D7 control.

**Q.** What about the “[3H]VF-6 transport, PfCRTEcu1110 (% PfCRT3D7 control)” value (PfCRT^Ecu1110; Experiment 5) of the same molecule?
**A.** Its value is 10.07 % PfCRT3D7 control.

**Q.** And the “[3H]VF-6 transport, PfCRTDd2 (% PfCRT3D7 control)” value (PfCRT^Dd2; Experiment 1)?
**A.** Its value is 8.23 % PfCRT3D7 control.

**Q.** What about the “[3H]VF-6 transport, PfCRTDd2 (% PfCRT3D7 control)” value (PfCRT^Dd2; Experiment 2) of the same molecule?
**A.** Its value is 8.92 % PfCRT3D7 control.

**Q.** What about the “[3H]VF-6 transport, PfCRTDd2 (% PfCRT3D7 control)” value (PfCRT^Dd2; Experiment 3) of the same molecule?
**A.** Its value is 7.3 % PfCRT3D7 control.

**Q.** And the “[3H]VF-6 transport, PfCRTDd2 (% PfCRT3D7 control)” value (PfCRT^Dd2; Experiment 4)?
**A.** The value was 7.53 % PfCRT3D7 control.

**Q.** What about the “[3H]VF-6 transport, PfCRTDd2 (% PfCRT3D7 control)” value (PfCRT^Dd2; Experiment 5) of the same molecule?
**A.** Its value is 7.44 % PfCRT3D7 control.

**Q.** And the “[3H]VF-6 transport, PfCRT3D7 (% PfCRT3D7 control)” value (PfCRT^3D7)?
**A.** Its value is 25.32 % PfCRT3D7 control and 24.64 % PfCRT3D7 control and 25.23 % PfCRT3D7 control and 25.9 % PfCRT3D7 control and 23.94 % PfCRT3D7 control.

**Q.** How did the “Compounds that have been tested as potential co-substrates but are not required for influx of VF-6 via PfCRT into the oocyte” value (PfCRT) turn out when `CC(C)C[C@H](N)C(=O)O` [L-leucine] was run?
**A.** The value was “X”.

**Q.** For `CC[C@H](C)[C@H](N)C(=O)O` [L-isoleucine], which “Compounds that have been tested as potential co-substrates but are not required for influx of VF-6 via PfCRT into the oocyte” value (PfCRT) is on record?
**A.** The value was “X”.

**Q.** With `N[C@@H](Cc1c[nH]c2ccccc12)C(=O)O` [L-tryptophan] as the molecule, how does the “Compounds that have been tested as potential co-substrates but are not required for influx of VF-6 via PfCRT into the oocyte” value (PfCRT) read?
**A.** Its value is “X”.

**Q.** Which “[3H]VF-6 transport, PfCRT3D7 (% PfCRT3D7 control)” value (PfCRT^3D7; trans-inhibition, treatment 45 mM, Experiment 1) does the source give for VDPVNF [VF-6] here?
**A.** Its value is 17.84 % PfCRT3D7 control.

**Q.** What about the “[3H]VF-6 transport, PfCRT3D7 (% PfCRT3D7 control)” value (PfCRT^3D7; trans-inhibition, treatment 45 mM, Experiment 2) of the same molecule?
**A.** The value was 18.04 % PfCRT3D7 control.

**Q.** And the “[3H]VF-6 transport, PfCRT3D7 (% PfCRT3D7 control)” value (PfCRT^3D7; trans-inhibition, treatment 45 mM, Experiment 3)?
**A.** Its value is 20.27 % PfCRT3D7 control.

**Q.** What about the “[3H]VF-6 transport, PfCRT3D7 (% PfCRT3D7 control)” value (PfCRT^3D7; trans-inhibition, treatment 45 mM, Experiment 4) of the same molecule?
**A.** The value was 18.57 % PfCRT3D7 control.

**Q.** What about the “[3H]VF-6 transport, PfCRT3D7 (% PfCRT3D7 control)” value (PfCRT^3D7; trans-inhibition, treatment 45 mM, Experiment 5) of the same molecule?
**A.** The value was 17.74 % PfCRT3D7 control.

**Q.** `C[C@H](N)C(=O)O` [L-alanine] was tested. Which “Compounds that have been tested as potential co-substrates but are not required for influx of VF-6 via PfCRT into the oocyte” value (PfCRT) did it give?
**A.** Its value is “X”.

**Q.** Which “Compounds that have been tested as potential co-substrates but are not required for influx of VF-6 via PfCRT into the oocyte” value (PfCRT) does the source give for `N[C@@H](CCC(=O)O)C(=O)O` [L-glutamic acid] here?
**A.** Its value is “X”.

**Q.** `N[C@@H](CS)C(=O)O` [L-cysteine] was tested. Which “Compounds that have been tested as potential co-substrates but are not required for influx of VF-6 via PfCRT into the oocyte” value (PfCRT) did it give?
**A.** The value was “X”.

**Q.** For `N[C@@H](CO)C(=O)O` [L-serine], which “Compounds that have been tested as potential co-substrates but are not required for influx of VF-6 via PfCRT into the oocyte” value (PfCRT) is on record?
**A.** Its value is “X”.

**Q.** With `N[C@@H](Cc1ccc(O)cc1)C(=O)O` [L-tyrosine] as the molecule, how does the “Compounds that have been tested as potential co-substrates but are not required for influx of VF-6 via PfCRT into the oocyte” value (PfCRT) read?
**A.** The value was “X”.
